{"source": "patent US20070037797A1", "about": "“Method of reducing the risk of adverse cardiovascular (CV) events associated with the administration of pharmaceutical agents which favor CV events” (priority 2005, published 2007)", "origin": "cited, not measured here", "key": {"[1]": {"details": "Losartan 50 mg vs. captopril 50 mg three times daily, patients with heart failure"}, "[2]": {"details": "losartan vs. captopril"}, "[3]": {"details": "use at high frequency or dose"}, "[4]": {"details": "10 mg dose"}, "[5]": {"details": "FDA determination"}, "[6]": {"details": "in vivo"}, "[7]": {"details": "individuals with essential hypertension"}, "[8]": {"details": "in vivo", "remark": "listed apart in the source"}, "[9]": {"details": "high-risk patients with diabetes mellitus, compared to placebo"}, "[10]": {"details": "25 mg/day of rofecoxib versus placebo"}, "[11]": {"details": "versus the non-selective NSAID naproxen"}, "[12]": {"assay": "not given", "remark": "listed apart in the source"}}, "note": "Read-outs that look alike come from different tables or passages of the source."}
{"smiles": "CCCCc1nc(Cl)c(CO)n1Cc1ccc(-c2ccccc2-c2nn[nH]n2)cc1", "note": "[Losartan]", "values": [{"measurement": "mortality", "setting": "[1]", "value": "significant reduction in mortality"}, {"measurement": "clinical endpoints", "setting": "[2]", "value": "no significant difference"}]}
{"smiles": "CC(=O)Nc1ccc(O)cc1", "note": "[acetaminophen]", "values": [{"measurement": "risk of adverse CV events", "setting": "[3]", "value": "significant increase"}]}
{"smiles": "CC(C)c1c(C(=O)Nc2ccccc2)c(-c2ccccc2)c(-c2ccc(F)cc2)n1CC[C@@H](O)C[C@@H](O)CC(=O)O", "note": "[atorvastatin]", "values": [{"measurement": "reduction in LDL", "setting": "[4]", "value": 39, "unit": "%"}]}
{"smiles": "Cc1ccc(-c2cc(C(F)(F)F)nn2-c2ccc(S(N)(=O)=O)cc2)cc1", "note": "[celecoxib]", "values": [{"measurement": "risk of adverse CV events compared to placebo", "setting": "[5]", "value": "increased risk of adverse CV events"}, {"measurement": "hazard for the composite endpoint of death from CV causes", "setting": "200 mg twice daily compared to placebo", "value": 2.5}, {"measurement": "hazard for the composite endpoint of death from CV causes", "setting": "400 mg twice daily compared to placebo", "value": 3.4}, {"measurement": "increase in adverse CV events", "setting": "versus placebo after a mean duration of 33 months", "value": "2-3 fold"}]}
{"smiles": "COc1ccc(OC(=O)N(CC(=O)O)Cc2ccc(OCCc3nc(-c4ccccc4)oc3C)cc2)cc1", "note": "[muraglitazar]", "values": [{"measurement": "risk of myocardial infarct and stroke", "setting": "[6]", "value": "increases the risk of myocardial infarct and stroke"}]}
{"smiles": "CCC(=O)NS(=O)(=O)c1ccc(-c2c(-c3ccccc3)noc2C)cc1", "note": "[parecoxib]", "values": [{"measurement": "endothelial dysfunction", "setting": "[7]", "value": "worsening"}]}
{"smiles": "O=C(c1ccc(OCCN2CCCCC2)cc1)c1c(-c2ccc(O)cc2)sc2cc(O)ccc12", "note": "[raloxifene]", "values": [{"measurement": "risk of stroke", "setting": "[8]", "value": "increases the risk of stroke"}]}
{"smiles": "CCOC(=O)[C@H](CCc1ccccc1)N[C@@H](C)C(=O)N1[C@H](C(=O)O)C[C@@H]2CCC[C@@H]21", "note": "[ramipril]", "values": [{"measurement": "relative risk reduction, combined primary outcome of myocardial infarction, stroke, and cardiovascular death", "setting": "[9]", "value": 25, "unit": "%"}]}
{"smiles": "CS(=O)(=O)c1ccc(C2=C(c3ccccc3)C(=O)OC2)cc1", "note": "[rofecoxib]", "values": [{"measurement": "increase in the incidence of serious thrombotic adverse events", "setting": "[10]", "value": "approximately two"}, {"measurement": "increase in the incidence of myocardial infarction", "setting": "[11]", "value": "approximately two"}, {"measurement": "risk of adverse CV events compared to placebo", "setting": "[5]", "value": "increased risk of adverse CV events"}, {"measurement": "selectivity for COX-2 compared with celecoxib", "setting": "COX-2 relative to COX-1", "value": 10, "unit": "times"}]}
{"smiles": "Cc1onc(-c2ccccc2)c1-c1ccc(S(N)(=O)=O)cc1", "note": "[valdecoxib]", "values": [{"measurement": "risk of adverse CV events compared to placebo", "setting": "[5]", "value": "increased risk of adverse CV events"}]}
{"smiles": "CCCCC(=O)N(Cc1ccc(-c2ccccc2-c2nnn[nH]2)cc1)[C@H](C(=O)O)C(C)C", "note": "[valsartan]", "values": [{"measurement": "survival and rates of non-fatal CV events", "setting": "[12]; patients with myocardial infarction", "value": "improved survival and reduced the rates of non-fatal CV events"}, {"measurement": "improving survival and reducing cardiovascular morbidity compared with captopril", "setting": "[12]; target dose of 160 mg twice daily", "value": "as effective as the ACE inhibitor captopril"}]}
